Results on 2 compounds are retold here after patent US7915263B2, “Aminopyridine derivatives having aurora A selective inhibitory action” (Banyu Pharmaceutical Co., Ltd., priority 2006, dated 2011).

For experiment [1], the target named is T1, His-tagged human Aurora A (Homo sapiens, UniProt O14965).
T1 construct: made in house; host or cells: Escherichia coli BL21-CodonPlus(DE3)-RIL
T1 sequence (O14965 1-403): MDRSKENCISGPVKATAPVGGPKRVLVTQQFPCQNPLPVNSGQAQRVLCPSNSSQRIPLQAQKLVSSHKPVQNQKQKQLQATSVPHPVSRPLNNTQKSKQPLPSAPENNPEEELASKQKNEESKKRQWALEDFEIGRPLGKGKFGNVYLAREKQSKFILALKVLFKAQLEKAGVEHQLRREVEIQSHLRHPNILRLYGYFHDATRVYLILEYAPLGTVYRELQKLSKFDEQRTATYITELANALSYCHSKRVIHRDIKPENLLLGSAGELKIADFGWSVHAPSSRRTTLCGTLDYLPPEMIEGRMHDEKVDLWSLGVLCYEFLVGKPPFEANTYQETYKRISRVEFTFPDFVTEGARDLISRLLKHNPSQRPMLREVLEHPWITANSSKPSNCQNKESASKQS
In words: Aurora A inhibitory activity (IMAP fluorescence polarization). The following applies: 20 μM ATP, 30° C., 120 minutes. It counts as biochemical. The source says: cDNA of N-terminal His-tagged human Aurora A was integrated into an expression vector, which was then highly expressed in Escherichia coli BL21-CodonPlus(DE3)-RIL cells. The Escherichia coli was harvested and lysed, and then the His-tagged human Aurora A protein was applied onto a nickel chelate column and eluted from the column with imidazole. The active fractions were desalted with a desalting column to give a purified enzyme.
Concretely, the phosphorylation reaction and the detection were carried out as follows:
The phosphorylation reaction was conducted using 384 well plate, and the reaction volume was 10 μl/well. The reaction buffer is comprised of 50 mM Tris-chloride buffer (pH 7.4), 15 mM magnesium acetate, and 0.2 mM ethylenediamine-N,N,N′,N′-tetraacetic acid (EDTA). […]
Thereafter, in order to terminate and detect the reaction, 30 μl of the IMAP (registered trademark) binding reagent (IMAP Progressive Binding Reagent, R7284) that had been diluted (1:400) in the 1× IMAP binding buffer A (IMAP Progressive Binding Buffer A, 5× stock, R7282) was added to each well. The solution stood still for 60 minutes in the dark, and then fluorescence polarization was measured using a high-end microplate reader (excitation wavelength: 485 nm; emission wavelength: 520 nm). […]
In general terms: In fluorescence polarisation assays a small probe gives low polarisation when free and higher when bound to something large.

The target in experiment [2] is T2, GST-tagged human Aurora B(AurB)/His-tagged human INCENP complex proteins (Homo sapiens, UniProt Q96GD4).
T2 construct: GST; purchased Cama Biosciences, Inc. (so in the source)
Kind of experiment: Aurora B inhibitory activity (Method A, IMAP kit). The format is biochemical. The note with it: 40 μM ATP, 25° C., 45 minutes. Here is the method:
Using the same, the phosphorylation reaction was conducted in accordance with a partially revised protocol attached to the kit, and then the phosphorylation of the substrate was detected using the IMAP technology.
For the phosphorylation reaction, 384 well plate was used, and the reaction volume was 10 μl/well. The composition of the reaction buffer (assay buffer) is comprised of 20 mM of HEPES buffer (pH 7.4), 0.01% Tween-20, and 2 mM of dithiothreitol (DTT). Thereto, AurB/INCENP complex protein, 100 nM of the substrate, and 40 μM of ATP, and 1 mM of magnesium salt were added, and then the reaction was conducted at 25° C. for 45 minutes. Thereafter, in order to terminate and detect the reaction, 30 μl of the IMAP (registered trademark) binding reagent (IMAP Progressive Binding Reagent, R7284) that had been diluted (1:400) in the 1× IMAP binding buffer A (IMAP Progressive Binding Buffer A, 5× stock, R7282) was added to each well.
The compound to be tested was added to the reaction system such that a dilution series of the compound in DMSO was prepared, and then 0.5 μL of this solution was added for the testing to each well. Each control well was provided by adding 0.5 μL of DMSO to the well in place of the DMSO solution containing the compound to be tested.

Experiment [3] concerns Human cervical cancer cells (HeLa S3). Kind of experiment: Cell growth inhibitory effect, WST-8 method. The format is cell-based. The note with it: 72 h, HeLa S3, three days incubation, read-out: Cell growth inhibitory effect (HeLaS3) (IC50). The method, then: Fetal calf serum (FCS) was purchased from Moregate Biotech, and DMEM medium was purchased from Invitrogen Corp. WST-8 was purchased from Kishida Chemical Co., Ltd.
(§1) Human cervical cancer cells (HeLa S3) were obtained from the American Type Culture Collection (ATCC).
Cells were suspended in a DMEM medium containing 10% FCS, and the cell suspension was dispensed to a 96-well plastic plate at a rate of 750 cells/100 microliters per well. The plate was incubated overnight in 5% CO2-95% air at 37° C. A drug was subjected to graded dilution in dimethylsulfoxide and further diluted with a DMEM medium containing 10% FCS. Then, the dilution was dispensed to the plate on which cells had been disseminated, at a rate of 100 microliters per well.
For orientation: Tetrazolium dyes change colour on reduction, which living cells bring about.

For experiment [4] the test system is unchanged. In words: Effect by combined use of drugs in cells (docetaxel), WST-8 method. The format is cell-based. Here is the method:
Fetal calf serum (FCS) was purchased from Moregate Biotech, DMEM medium from Invitrogen Corp., docetaxel (tradename: Taxere) from Sigma-Aldrich, Inc., and WST-8 from Kishida Chemical Co., Ltd.
as §1
Cells were suspended in a DMEM medium containing 10% FCS, and the cell suspension was dispensed to two 96-well plastic plates at a rate of 750 cells/100 microliters per well. The plates were incubated overnight in 5% CO2-95% air at 37° C. A drug was subjected to graded dilution in dimethylsulfoxide and further diluted with DMSO or with a DMEM medium containing 10% FCS and also containing 0.6 nM docetaxel. Then, the dilutions were each dispensed to one of the plates on which cells had been disseminated, at a rate of 100 microliters per well. The final concentration of docetaxel at this stage was 0.3 nM. Also, the concentrations in the case of sole administration of the compound according to the invention were 0.003, 0.01, 0.03, 0.1, 0.3, 1, 3 and 10 μM. The plates were incubated for further three days in 5% CO2-95% air at 37° C. Cell growth after incubation was measured by the WST-8 method (H. Tominaga, et al., Anal. Commun., 36, 47-50 (1999)). Here, the WST-8 method refers to a method in which 20 microliters of a WST-8 reagent solution is added to each well, incubation is conducted at 37° C. for 60 minutes, the plate is stirred, and the amount of formazan produced is measured by a colorimetric method to determine the inhibitory rate of the drug. The growth inhibitory effects of docetaxel and of the compound according to the invention were determined, with the value obtained in sole treatment of DMSO being defined as 0%.

T2 sequence (Q96GD4 whole entry): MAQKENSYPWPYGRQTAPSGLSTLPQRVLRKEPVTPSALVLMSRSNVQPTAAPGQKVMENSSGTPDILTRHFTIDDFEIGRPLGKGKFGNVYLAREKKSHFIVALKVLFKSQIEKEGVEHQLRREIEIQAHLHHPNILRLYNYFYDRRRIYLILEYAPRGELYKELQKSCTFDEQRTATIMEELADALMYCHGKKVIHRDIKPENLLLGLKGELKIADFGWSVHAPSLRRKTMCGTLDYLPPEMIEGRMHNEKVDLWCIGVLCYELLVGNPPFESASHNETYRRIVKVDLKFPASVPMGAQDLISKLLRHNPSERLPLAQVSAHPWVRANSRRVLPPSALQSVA
T2 sequence (Q9NQS7 803-916 partner limits assumed): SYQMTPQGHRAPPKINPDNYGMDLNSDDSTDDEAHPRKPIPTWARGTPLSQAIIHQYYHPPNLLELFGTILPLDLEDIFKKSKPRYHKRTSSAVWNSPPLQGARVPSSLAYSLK

As for `Fc1c(O[C@H]2CC[C@](Cc3cccc(Nc4cc[nH]n4)n3)(c3nncs3)CC2)cccc1C(F)(F)F` [Example 27, 6-((trans-4-(2-fluoro-3-(trifluoromethyl)phenoxy)-1-(1,3,4-thiadiazol-2-yl)cyclohexyl)methyl)-N-1H-pyrazol-3-ylpyridin-2-amine], the IC50 (in general, the concentration at which inhibition is half-maximal) in experiment [1] stood at 0.0024 µM; in experiment [2], 0.22 µM.

In the case of `O=c1[nH]nc([C@]2(Cc3cncc(Nc4cc[nH]n4)n3)CC[C@@H](Oc3cccc(Cl)c3F)CC2)o1` [Example 29, 5-(trans-4-(3-chloro-2-fluorophenoxy)-1-((6-(1H-pyrazol-3-ylamino)pyrazin-2-yl)methyl)cyclohexyl)-1,3,4-oxadiazol-2(3H)-one], the values for the IC50 in experiment [1], in experiment [2] and in experiment [3] were 0.00019 µM, 0.67 µM and 0.67 µM, respectively. Besides, in experiment [4] (Homo sapiens, HeLa S3, compound 0.1 μM alone, read-out: Cell growth inhibitory effect by sole administration of the compound of Example (%)), the inhibition at 0.1 µM was 11.3%. Further, the inhibition at 0.3 µM in experiment [4] (Homo sapiens, HeLa S3, compound 0.3 μM alone, read-out: Cell growth inhibitory effect by sole administration of the compound of Example (%)) is 39.9%. The “Cell growth inhibitory effect by combined administration of docetaxel and the compound of Example (%)” value in experiment [4] (compound 0.1 μM + docetaxel 0.3 nM) is 79.0%; in experiment [4] (compound 0.3 μM + docetaxel 0.3 nM), 92.9%.
